Laboratory results taken from patent publication US7449473B2, “Substituted pyrrolo[3,2-d]pyrimidin-2,4-diones as A2b adenosine receptor antagonists” (CV Therapeutics, Inc., priority 2003, dated 2008).

target: T1, Human A2B adenosine receptor (Homo sapiens, UniProt P29275); assay: Radioligand binding for A2B adenosine receptor (3H-ZM241385 competition, HEK-A2B membranes); conditions: competition with 10 nM 3H-ZM241385, HEK-A2B cell membranes
T1 construct: expressed in transfected cells; host or cells: HEK-293 (HEK-A2B), membrane preparation
T1 sequence (P29275 1-332): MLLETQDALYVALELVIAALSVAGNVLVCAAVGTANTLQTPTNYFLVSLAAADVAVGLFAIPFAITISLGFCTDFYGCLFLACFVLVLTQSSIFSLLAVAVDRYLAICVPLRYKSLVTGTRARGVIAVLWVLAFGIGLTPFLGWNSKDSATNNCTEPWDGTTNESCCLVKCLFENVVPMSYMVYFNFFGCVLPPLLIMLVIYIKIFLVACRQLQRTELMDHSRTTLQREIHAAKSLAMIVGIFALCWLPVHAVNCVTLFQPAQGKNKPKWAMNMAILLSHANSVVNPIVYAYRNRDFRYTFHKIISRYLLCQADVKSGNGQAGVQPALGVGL
Description: Radioligand Binding for A2B Adenosine Receptor.
Human A2B adenosine receptor cDNA was stably transfected into HEK-293 cells (referred to as HEK-A2B cells). Monolayer of HEK-A2B cells were washed with PBS once and harvested in a buffer containing 10 mM HEPES (pH 7.4), 10 mM EDTA and protease inhibitors. These cells were homogenized in polytron for 1 minute at setting 4 and centrifuged at 29000 g for 15 minutes at 4° C. The cell pellets were washed once with a buffer containing 10 mM HEPES (pH7.4), 1 mM EDTA and protease inhibitors, and were resuspended in the same buffer supplemented with 10% sucrose. Frozen aliquots were kept at −80° C. Competition assays were started by mixing 10 nM ^3H-ZM241385 (Tocris Cookson) with various concentrations of test compounds and 50 μg membrane proteins in TE buffer (50 mM Tris and 1 mM EDTA) supplemented with 1 Unit/mL adenosine deaminase. The assays were incubated for 90 minutes, stopped by filtration using Packard Harvester and washed four times with ice-cold TM buffer (10 mM Tris, 1 mM MgCl2, pH 7.4). Non specific binding was determined in the presence of 10 μM ZM241385. The affinities of compounds (i.e. Ki values) were calculated using GraphPad software.

| Ki [nM] | SMILES |
| --- | --- |
| 129 | CCCn1c(=O)c2c(cc(-c3ccccn3)n2O)n(CCC)c1=O [1,3-dipropyl-8-(pyridin-2-yl)-7-hydroxy-1H-pyrrolo[3,2-d]pyrimidine-2,6-dione] |
| 26 | CCCn1c(=O)c2[nH]c(-c3cnn(Cc4ccccc4)c3)cc2n(CCC)c1=O [6-[1-benzylpyrazol-4-yl]-1,3-dipropyl-1,3-dihydropyrrolo[3,2-d]pyrimidine-2,4-dione] |
| 9 | CCCn1c(=O)c2c(cc(-c3cnn(Cc4cccc(C(F)(F)F)c4)c3)n2O)n(CCC)c1=O [8-(1-(3-(trifluoromethyl)benzyl)-1H-pyrazol-4-yl)-7-hydroxy-1,3-dipropyl-1H-pyrrolo[3,2-d]pyrimidine-2,6-dione] |
| 13 | CCCn1c(=O)c2[nH]c(-c3cnn(Cc4cccc(F)c4)c3)cc2n(CCC)c1=O [8-(1-(3-fluorobenzyl)-1H-pyrazol-4-yl)-1,3-dipropyl-1H-pyrrolo[3,2-d]pyrimidine-2,6-dione] |
| 120 | CCCn1c(=O)c2c(cc(-c3cnn(Cc4ccccc4)c3)n2O)n(CCC)c1=O [8-(1-benzyl-1H-pyrazol-4-yl)-7-hydroxy-1,3-dipropyl-1H-pyrrolo[3,2-d]pyrimidine-2,6-dione] |
| 544 | CCCn1c(=O)c2[nH]c(-c3cc[n+]([O-])cc3)cc2n(CCC)c1=O [8-(N-oxypyridin-4-yl)-1,3-dipropyl-1H-pyrrolo[3,2-d]pyrimidine-2,6-dione] |
| 12 | CCCn1c(=O)c2c(cc(-c3ccncc3)n2O)n(CCC)c1=O [8-(pyridin-4-yl)-7-hydroxy-1,3-dipropyl-1H-pyrrolo[3,2-d]pyrimidine-2,6-dione] |
